Reference: patent publication US20240390484A1 (priority 2022, published 2024)

Columns and labels:
[1] = Particle size and polydispersity index (PDI) by Dynamic Light Scattering; assay type: physicochemical; settings: for “Ready-to-use” S2P RNA formulation PDI / “Ready-to-use” S2P RNA formulation Size: 48/40.5/10/1.5 mol %, blank-LNP added to lyophilized S2P RNA (55 ug/vial), N/P 7; for Blank-LNP PDI / Blank-LNP Size: 48/40.5/10/1.5 mol % ionizable lipid/cholesterol/DSPC/DMG-PEG
Protocol: (§1) Lipid nanoparticles (LNPs) were formed or formulated by rapid mixing of an ethanol phase and an aqueous phase using a microfluidic device. The aqueous phase included a 50 mM citrate buffer (pH 5.5). The ethanol phase included an ionizable lipid (as described herein), cholesterol (Jiangsu Southeast Nanomaterials), 1,2-diastearoyl-sn-glycero-3-phosphocholine (DSPC) (Jiangsu Southeast Nanomaterials) and 1,2-dimyristoyl-rac-glycero-3-methoxypolyethylene glycol-2000 (DMG-PEG2000) (SINOPEG). A series of ionizable lipids were evaluated. These four lipid components were mixed at defined molar ratios in ethanol, for instance, at a molar ratio of 48:40.5:10:1.5 (ionizable lipid:cholesterol:DSPC:DMG-PEG2000). The generated LNP particles were purified in citrate buffer (containing sucrose) and characterized with respect to particle size, polydispersity index (PDI) and ionizable lipid concentration. The LNP solution was then diluted to the target concentration and stored at 2-8° C.
(§2) In the case of a filled LNP, for example, an LNP-encapsulated S-2P RNA liquid drug product, the preparation protocol is essentially the same, except that it was an aqueous solution of S-2P RNA in citrate buffer pH 5-6 that constitutes the aqueous phase for LNP formation. The LNP-encapsulated RNA formulation is also referred to as “RNA-LNP” in this disclosure. Regarding characterization, particle size and polydispersity index (PDI) of the RNA-LNP were determined by Dynamic Light Scattering (DLS); RNA encapsulation efficiency and concentration were determined by means of Ribogreen® assay and RNA purity was determined by agarose gel electrophoresis.
(§3) The “ready-to-use” RNA product was manufactured by transferring a predetermined amount of already formed LNP in solution to a sealed vial containing the lyophilized RNA composition, followed by mixing at room temperature. The amount of LNP added per vial (e.g., 30-100 μg RNA per vial) was determined based on the molar ionizable lipid:RNA (N/P) molar ratio of 7. In this disclosure, “ready-to-use” S-2P RNA formulations (also referred to as “LNP(S-2P RNA)”) containing 30-100 μg/mL S-2P RNA were prepared, and then characterized with respect to particle size, polydispersity index, as well as RNA concentration, complexation efficiency, and purity using the same methods as described above in Example 3.

BHK-21 cells = assay type: cell-based; settings: ready-to-use S2P RNA, 4 μg, 48 hours post transfection; 48/40.5/10/1.5 mol %
Vero E6 cells = assay type: cell-based; settings: ready-to-use S2P RNA, 4 μg, 48 hours post transfection; 48/40.5/10/1.5 mol %
[2] = Stability of blank-LNP at 2-8° C. (particle size, PDI); assay type: physicochemical; settings: blank-LNP 48/40.5/10/1.5 mol %
Protocol: as §1
Each generated blank-LNP formulation was added to and mixed with lyophilized S2P RNA, altogether yielding a series of “ready-to-use” S2P RNA test items containing the different ionizable lipids. The pharmaceutical characteristics (Table 3) and in vitro transfection efficiency (Table 4) of these “ready-to-use” RNA test items were compared head-to-head. In parallel, the stability profiles of these […] blank-LNP formulations (i.e. without RNA complexation) were assessed at 2-8° C. (see Table 5).
The generated fourteen blank-LNP formulations were characterized in terms of particle size and PDI, both at the end of manufacturing (T=0) and 8-week storage at 2-8° C. […] (defined as size increase ≤20 nm in 8 weeks), namely DMG-PEG2000 between at least 1-4 mol %, DSPC between at least 5-20 mol %, ionizable lipid between at least 30-70 mol % and cholesterol between at least 18.5-58.5 mol %.

[3] = RNA encapsulation/complexation efficiency by Ribogreen assay; assay type: physicochemical; settings: 48/40.5/10/1.5 mol %; blank-LNP added to lyophilized S2P RNA (55 ug/vial), N/P 7
Protocol: as §2, §3

[4] = various LNP batches, different molar ratios of ionizable lipid:cholesterol:DSPC:DMG-PEG2000

Row | SMILES | “Ready-to-use” S2P RNA formulation PDI [1] | “Ready-to-use” S2P RNA formulation Size [1] [nm] | Blank-LNP PDI [1] | Blank-LNP Size [1] [nm] | RBD expression in BHK-21 cells (BHK-21 cells) [ng/mL] | RBD expression in Vero E6 cells (Vero E6 cells) [ng/mL] | Change in size (nm) vs. T0, T = 1 month [2] | PDI, T = 1 month [2] | Size, T = 1 month [2] [nm] | Change in size (nm) vs. T0, T = 1 month ([2]; listed as #2) | Change in size (nm) vs. T0, T = 2 weeks [2] | PDI, T = 2 weeks [2] | Size, T = 2 weeks [2] [nm] | PDI, T = 0 [2] | Size, T = 0 [2] [nm] | particle size [1, 4] [nm] | polydispersity index [1, 4] | “Ready-to-use” S2P RNA formulation RNA complexation efficiency [3] [%]
1 | CCCCCCCCCOC(=O)CCCCCCCOc1ccc(OCCCCCCCC(=O)OCCCCCCCCC)c(COC(=O)CCCN(C)C)c1 [Lipid #2] | 0.21 | 211 | 0.09 | 120 | 1.34 | 0.97 | unaltered size | 0.07 | 121 | +1 nm | +2 nm | 0.09 | 122 | 0.09 | 120 |  |  | 
2 | CCCCCCCCCOC(=O)CCCCCCCOc1ccc(OCCCCCCCC(=O)OC(CCCCCCCC)CCCCCCCC)c(COC(=O)CCCN(C)C)c1 [Lipid #5] | 0.13 | 137 | 0.2 | 91 |  |  |  | 0.14 | 93 |  | −1 nm | 0.13 | 90 | 0.20 | 91 | 80±15 | 0.10±0.05 | 44
3 | CCCCCC/C=C/COC(=O)CCCCCCCCC(CCCCCCCCC(=O)OC/C=C/CCCCCC)OC(=O)CCCN(C)C [Lipid #9] | 0.18 | 280 | 0.09 | 207 | 0.50 | 0.16 | +22 nm | 0.10 | 229 |  | +7 nm | 0.05 | 214 | 0.09 | 207 |  |  | 34
